Counter-ions that a name gives are not always drawn.
How the values were obtained:
[1] = target: T1, recombinant human Itk kinase domain fused with GST (Homo sapiens, UniProt Q08881); experiment: Itk LANCE TRF Assay; type: biochemical; conditions: 160 ng/well Itk, 2 μM peptide substrate, 50 μM ATP, 50 minutes RT; read-out: Inhibition of Kinase Itk (IC50 μM)
T1 construct: recombinant human Itk kinase domain fused with GST; made in house; host or cells: High Five insect cells
T1 sequence (Q08881 363-615 limits assumed): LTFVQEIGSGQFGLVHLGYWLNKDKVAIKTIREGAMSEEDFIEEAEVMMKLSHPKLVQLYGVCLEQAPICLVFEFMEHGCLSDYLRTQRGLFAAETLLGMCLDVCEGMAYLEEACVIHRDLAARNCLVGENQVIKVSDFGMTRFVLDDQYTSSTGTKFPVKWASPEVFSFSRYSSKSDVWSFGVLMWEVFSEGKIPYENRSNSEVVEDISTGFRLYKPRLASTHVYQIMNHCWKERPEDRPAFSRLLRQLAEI
Method: The Itk kinase assay utilized recombinant human Itk kinase domain fused with GST (Glutathione S-Transferase). The protein was expressed in High five insect cells, purified in one step on an affinity chromatography glutathione column and stored in 50 mM Tris/HCl (pH 7.6), 150 mM NaCl, 5% (w/v) mannitol, 1 mM DTT, 30% glycerol at −70° C. The kinase substrate used in the assay was a biotinylated peptide derived from the Src-optimal substrate (Nair et al, J. Med. Chem., 38: 4276, 1995; biotin-AEEEIYGEFEAKKKK).
The assay additions were as follows: Test compounds (or controls; 1 μL in 100% DMSO) were added to black 96-well flat-bottomed plates (Greiner 655076) followed by 20 μL Itk in assay buffer and the reaction was started by adding 20 μL ATP and peptide substrate in assay buffer. The assay buffer constitution during phosphorylation was: 50 mM HEPES (pH 6.8), 10 mM MgCl2, 0.015% Brij 35, 1 mM DTT, 10% glycerol, 160 ng/well Itk, 2 μM peptide substrate and 50 μM ATP. The assay was stopped after 50 minutes (RT) by adding 150 μL ice-cold Stop solution (50 mM Tris/HCl, pH 7.5, 10 mM EDTA, 0.9% NaCl and 0.1% BSA) together with LANCE reagents (2 nM PT66-Eu^3+, Wallac AD0069 and 5 μg/ml Streptavidin-APC, Wallac AD0059. Both concentrations were final in stopped assay solution). The plates were measured on a Wallac 1420 Victor 2 instrument with TRF settings after 1 h incubation, and the ratio (665 signal/615 signal)*10000 was used to calculate the inhibition values. IC50 values were determined using XLfit.

| SMILES | IC50 [1] [µM] | melting point [°C] |
| --- | --- | --- |
| Brc1cnc2[nH]c(-c3ccccc3)c(-c3ccco3)c2c1 [Example 12, 5-Bromo-3-furan-2-yl-2-phenyl-1-H-pyrrolo[2,3-b]pyridine] | – | 105 to 107 |
| CC(=O)NCc1ccc(-c2c(-c3ccccc3)[nH]c3ncc(Br)cc23)o1 [Example 13, N-[5-(5-Bromo-2-phenyl-1-H-pyrrolo[2,3-b]pyridin-3-yl)-furan-2-ylmethyl]-acetamide] | 0.03 | 176 to 176.5 |
| N#Cc1cnc2[nH]c(-c3ccccc3)c(-c3ccc(N4CCOCC4)cc3)c2c1 [Example 44, 3-(4-Morpholin-4-ylphenyl)-2-phenyl-1H-pyrrolo[2,3-b]pyridine-5-carbonitrile] | 0.44 | – |
| CN(C)CCCN(C)c1ccc(-c2[nH]c3ncc(Cl)cc3c2-c2cncnc2)cn1 [Example 61, N-[5-(5-Chloro-3-pyrimidin-5-yl-1H-pyrrolo[2,3-b]pyridin-2-yl]-N,N′,N′-trimethylpropane-1,3-diaminetrihydrochloride] | 0.04 | – |

Further molecules by falling IC50 [1], results first:

| IC50 [1] [µM] | melting point [°C] | SMILES |
| --- | --- | --- |
| 0.01 | – | CN(C)CCCOc1ccc(-c2c(-c3ccco3)[nH]c3ncc(Br)cc23)cc1 [Example 5, 3-{4-[S-Bromo-2-(2-furyl)-1H-pyrrolo[2,3-b]pyridin-3-yl]phenoxy}-N,N-dimethylpropan-1-amine trifluoroacetate] |
| 0.01 | – | Cc1c(Br)cnc2[nH]c(-c3ccc(OCCCN(C)C)cc3)c(-c3cccnc3)c12 [Example 55, {3-[4-(5-Bromo-4-methyl-3-pyridin-3-yl-1H-pyrrolo[2,3-b]pyridin-2-yl)phenoxy]propyl}dimethylamine] |

From patent US20050261331A1, “Substituted pyrrolopyridines” (priority 2002, published 2005)
